Blank lines part the entries; values can stand above or below the compound they belong to.
Tests used:
Assay in all cases: Broth microdilution MIC, Example 7 (NCL812 and analogues)
[1] = test system: MRSA; type: cell-based, Staphylococcus aureus; settings: for activity against MRSA among analogues: MIC testing, two MRSA strains
Experimental: (§1) Minimum inhibitory concentrations (μg/ml) were determined using the broth microdilution method recommended by the Clinical and Laboratory Standards Institute (CLSI). MIC breakpoints were determined by visual assessment and then confirmed using an ELISA plate reader, measuring absorbance levels at 600 nm. Bacterial growth (turbidity) in the wells with antimicrobial was compared with the amount of growth (turbidity) in the growth-control well (containing no antimicrobial). All isolates were tested in duplicate, if there was a difference of greater than one two-fold dilution in the results, the test was repeated a third time. The purity of the isolates was closely monitored during testing by subculturing the prepared bacterial inoculum onto SBA (sheep blood agar). […] The MIC50, MIC20 and MIC range (minimum and maximum) were calculated for each of the bacterial groups.
(§2) MICs were determined against two MRSA strains, two VRE strains and one strain each of E. coli and Pseudomonas aeruginosa.

[2] = test system: VRE; type: cell-based, Enterococcus spp.; settings: for activity against VRE among analogues: MIC testing, two VRE strains; for VRE: bioassay ranking
Experimental: as §1, §2

[3] = test system: Escherichia coli; type: cell-based; settings: 24 hours
[4] = test system: Pseudomonas aeruginosa; type: cell-based; settings: 24 hours
[5] = isolate MRSA 1, 24 hours, 1st and 2nd replicate rows
[6] = isolate MRSA 2, 24 hours, 1st and 2nd replicate rows
[7] = isolate VRE 1, 24 hours, 1st and 2nd replicate rows
[8] = isolate VRE 2, 24 hours, 1st and 2nd replicate rows
[9] = MRSA 1, 24 hours, duplicate lines per compound
[10] = MRSA 2, 24 hours, duplicate lines per compound
[11] = VRE 1, 24 hours, duplicate lines per compound
[12] = VRE 2, 24 hours, duplicate lines per compound
[13] = E. coli, duplicate lines per compound
[14] = P. aeruginosa, duplicate lines per compound

SMILES: Cl.N#Cc1ccccc1C=NNC(=N)NN=Cc1ccccc1C#N [NCL025]
MIC (μg/ml) at 24 hours, MRSA 1 [1, 5]: >128 µg/mL | MIC (μg/ml) at 24 hours, MRSA 2 [1, 6]: >128 µg/mL | MIC (μg/ml) at 24 hours, VRE 1 [2, 7]: >128 µg/mL | MIC (μg/ml) at 24 hours, VRE 2 [2, 8]: >128 µg/mL | MIC (μg/ml) at 24 hours, E. coli ([3]; 1st and 2nd replicate rows): >128 µg/mL | MIC (μg/ml) at 24 hours, P. aeruginosa ([4]; 1st and 2nd replicate rows): >128 µg/mL

SMILES: C/C(=N\NC(=N)N)c1ccc(Cl)cc1.Cl [NCL191]
activity against MRSA among analogues [1]: greatest activity | activity against VRE among analogues [2]: greatest activity

SMILES: Cl.Clc1ccc(/C=N/Nc2cc(N/N=C/c3ccc(Cl)cc3)ncn2)cc1 [NCL187]
activity against MRSA among analogues [1]: greatest activity | activity against VRE among analogues [2]: greatest activity

SMILES: CSc1ccc(C=NNC(=N)NN=Cc2ccc(SC)cc2)cc1.Cl [NCL140]
activity against MRSA among analogues [1]: greatest activity | activity against VRE among analogues [2]: greatest activity | VRE [2]: 5 µg/mL

SMILES: Cl.N=C(NN=Cc1ccc(O)cc1)NN=Cc1ccc(O)cc1 [NCL151]
activity against MRSA among analogues [1]: greatest activity | activity against VRE among analogues [2]: greatest activity

SMILES: OC/C(=N\Nc1cc(N/N=C(\CO)c2ccc(Cl)cc2)ncn1)c1ccc(Cl)cc1 [NCL180]
activity against MRSA among analogues [1]: greatest activity | activity against VRE among analogues [2]: greatest activity | VRE [2]: 32 µg/mL

SMILES: CC(=NNC(=N)NN=C(C)c1ccc(N2CCNCC2)cc1)c1ccc(N2CCNCC2)cc1.Cl [NCL161]
activity against MRSA among analogues [1]: greatest activity | activity against VRE among analogues [2]: greatest activity

SMILES: CC(Nc1cnc(NC(C)c2ccc(Cl)cc2)cn1)c1ccc(Cl)cc1 (stereo not shown) [NCL186]
activity against MRSA among analogues [1]: greatest activity | activity against VRE among analogues [2]: greatest activity

Now from value to compound:

MIC (μg/ml) at 24 hours, MRSA 1 [1, 5]: >128 µg/mL | MIC (μg/ml) at 24 hours, MRSA 2 [1, 6]: >128 µg/mL | MIC (μg/ml) at 24 hours, VRE 1 [2, 7]: >128 µg/mL | MIC (μg/ml) at 24 hours, VRE 2 [2, 8]: >128 µg/mL | MIC (μg/ml) at 24 hours, E. coli ([3]; 1st and 2nd replicate rows): >128 µg/mL | MIC (μg/ml) at 24 hours, P. aeruginosa ([4]; 1st and 2nd replicate rows): >128 µg/mL
SMILES: N#Cc1ccccc1C=NNC(=S)NN=Cc1ccccc1C#N [NCL064]

MIC (μg/ml) at 24 hours, MRSA 1 ([1]; MRSA 1, 24 hours): >128 µg/mL | MIC (μg/ml) at 24 hours, MRSA 2 ([1]; MRSA 2, 24 hours): >128 µg/mL | MIC (μg/ml) at 24 hours, VRE 1 ([2]; VRE 1, 24 hours): >128 µg/mL | MIC (μg/ml) at 24 hours, VRE 2 ([2]; VRE 2, 24 hours): >128 µg/mL | MIC (μg/ml) at 24 hours, E. coli ([3]; E. coli): >128 µg/mL | MIC (μg/ml) at 24 hours, P. aeruginosa ([4]; P. aeruginosa): >128 µg/mL
SMILES: Nc1nc(N/N=C/c2ccccc2)nc(N/N=C/c2ccccc2)n1 [NCL214]

MIC (μg/ml) at 24 hours, MRSA 1 [1, 9]: 64 µg/mL | MIC (μg/ml) at 24 hours, MRSA 2 [1, 10]: 128 µg/mL | MIC (μg/ml) at 24 hours, VRE 1 [2, 11]: 32 µg/mL | MIC (μg/ml) at 24 hours, VRE 2 [2, 12]: 128 µg/mL | MIC (μg/ml) at 24 hours, E. coli [3, 13]: >128 µg/mL | MIC (μg/ml) at 24 hours, P. aeruginosa [4, 14]: >128 µg/mL
SMILES: CCCCc1ccc(C=NNC(=N)NN=Cc2ccc(CCCC)cc2)cc1.Cl [NCL 136]

MIC (μg/ml) at 24 hours, MRSA 1 ([1]; MRSA 1, 24 hours): >128 µg/mL | MIC (μg/ml) at 24 hours, MRSA 2 ([1]; MRSA 2, 24 hours): >128 µg/mL | MIC (μg/ml) at 24 hours, VRE 1 ([2]; VRE 1, 24 hours): >128 µg/mL | MIC (μg/ml) at 24 hours, VRE 2 ([2]; VRE 2, 24 hours): >128 µg/mL | MIC (μg/ml) at 24 hours, E. coli ([3]; E. coli): >128 µg/mL | MIC (μg/ml) at 24 hours, P. aeruginosa ([4]; P. aeruginosa): >128 µg/mL
SMILES: Cc1ccc(/C=N/Nc2nc(N)nc(N/N=C/c3ccc(C)cc3)n2)cc1 [NCL206]

MIC (μg/ml) at 24 hours, MRSA 1 [1, 9]: >128 µg/mL | MIC (μg/ml) at 24 hours, MRSA 2 [1, 10]: >128 µg/mL | MIC (μg/ml) at 24 hours, VRE 1 [2, 11]: >128 µg/mL | MIC (μg/ml) at 24 hours, VRE 2 [2, 12]: >128 µg/mL | MIC (μg/ml) at 24 hours, E. coli [3, 13]: >128 µg/mL | MIC (μg/ml) at 24 hours, P. aeruginosa [4, 14]: >128 µg/mL
SMILES: Cl.N=C(N/N=C/C=C/c1ccccc1)N/N=C/C=C/c1ccccc1 [NCL096]

MIC (μg/ml) at 24 hours, MRSA 1 [1, 9]: >128 µg/mL | MIC (μg/ml) at 24 hours, MRSA 2 [1, 10]: >128 µg/mL | MIC (μg/ml) at 24 hours, VRE 1 [2, 11]: >128 µg/mL | MIC (μg/ml) at 24 hours, VRE 2 [2, 12]: >128 µg/mL | MIC (μg/ml) at 24 hours, E. coli [3, 13]: >128 µg/mL | MIC (μg/ml) at 24 hours, P. aeruginosa [4, 14]: >128 µg/mL
SMILES: COc1ccc(C=NNC(=N)NN=Cc2ccc(OC)c(O)c2)cc1O.Cl [NCL 125]

MIC (μg/ml) at 24 hours, MRSA 1 [1, 5]: >128 µg/mL | MIC (μg/ml) at 24 hours, MRSA 2 [1, 6]: >128 µg/mL | MIC (μg/ml) at 24 hours, VRE 1 [2, 7]: >128 µg/mL | MIC (μg/ml) at 24 hours, VRE 2 [2, 8]: >128 µg/mL | MIC (μg/ml) at 24 hours, E. coli ([3]; 1st and 2nd replicate rows): >128 µg/mL | MIC (μg/ml) at 24 hours, P. aeruginosa ([4]; 1st and 2nd replicate rows): >128 µg/mL
SMILES: Cc1cccc(C=NNC(=O)NN=Cc2cccc(C)c2)c1 [NCL019]

MIC (μg/ml) at 24 hours, MRSA 1 ([1]; MRSA 1, 24 hours): >128 µg/mL | MIC (μg/ml) at 24 hours, MRSA 2 ([1]; MRSA 2, 24 hours): >128 µg/mL | MIC (μg/ml) at 24 hours, VRE 1 ([2]; VRE 1, 24 hours): >128 µg/mL | MIC (μg/ml) at 24 hours, VRE 2 ([2]; VRE 2, 24 hours): >128 µg/mL | MIC (μg/ml) at 24 hours, E. coli ([3]; E. coli): >128 µg/mL | MIC (μg/ml) at 24 hours, P. aeruginosa ([4]; P. aeruginosa): >128 µg/mL
SMILES: Nc1nc(N/N=C/C2CCCCC2)nc(N/N=C/C2CCCCC2)n1 [NCL213]

MIC (μg/ml) at 24 hours, MRSA 1 [1, 9]: >128 µg/mL | MIC (μg/ml) at 24 hours, MRSA 2 [1, 10]: >128 µg/mL | MIC (μg/ml) at 24 hours, VRE 1 [2, 11]: >128 µg/mL | MIC (μg/ml) at 24 hours, VRE 2 [2, 12]: 128 µg/mL | MIC (μg/ml) at 24 hours, E. coli [3, 13]: >128 µg/mL | MIC (μg/ml) at 24 hours, P. aeruginosa [4, 14]: >128 µg/mL
SMILES: Cl.N#Cc1cccc(C=NNC(=N)NN=Cc2ccc(Cl)cc2)c1 [NCL086]

MIC (μg/ml) at 24 hours, MRSA 1 ([1]; MRSA 1, 24 hours): 32 µg/mL | MIC (μg/ml) at 24 hours, MRSA 2 ([1]; MRSA 2, 24 hours): 32 µg/mL | MIC (μg/ml) at 24 hours, VRE 1 ([2]; VRE 1, 24 hours): 4 µg/mL | MIC (μg/ml) at 24 hours, VRE 2 ([2]; VRE 2, 24 hours): 32 µg/mL | MIC (μg/ml) at 24 hours, E. coli ([3]; E. coli): >128 µg/mL | MIC (μg/ml) at 24 hours, P. aeruginosa ([4]; P. aeruginosa): >128 µg/mL
SMILES: Cl.N=C(NN=Cc1ccc(Cl)cc1O)NN=Cc1ccc(Cl)cc1O [NCL 174]

MIC (μg/ml) at 24 hours, MRSA 1 ([1]; MRSA 1, 24 hours): >128 µg/mL | MIC (μg/ml) at 24 hours, MRSA 2 ([1]; MRSA 2, 24 hours): >128 µg/mL | MIC (μg/ml) at 24 hours, VRE 1 ([2]; VRE 1, 24 hours): >128 µg/mL | MIC (μg/ml) at 24 hours, VRE 2 ([2]; VRE 2, 24 hours): >128 µg/mL | MIC (μg/ml) at 24 hours, E. coli ([3]; E. coli): >128 µg/mL | MIC (μg/ml) at 24 hours, P. aeruginosa ([4]; P. aeruginosa): >128 µg/mL
SMILES: C/C(=N\Nc1nc(N)nc(N/N=C(\C)c2ccc(Cl)cc2)n1)c1ccc(Cl)cc1 [NCL208]
